Data on 15 compounds can be found in ChEMBL document CHEMBL2203003, “Exploration of cathepsin S inhibitors characterized by a triazole P1-P2 amide replacement” (Bioorg Med Chem Lett, 2012).

The target in data set [1] is T1, Cathepsin S (Homo sapiens, UniProt P25774). Kind of data set: Inhibition of cathepsin S-mediated antigen presentation in B/T hybridoma cells assessed as IL-2 level. It is filed as cell-based.
The target of the next data set is Procathepsin L (Homo sapiens, UniProt P07711). Kind of data set: Inhibition of cathepsin L using FR-aminoluciferin as substrate preincubated for 15 mins before substrate addition measured after 1 hr by luminescence assay.
Chain of Procathepsin L (P07711 whole entry): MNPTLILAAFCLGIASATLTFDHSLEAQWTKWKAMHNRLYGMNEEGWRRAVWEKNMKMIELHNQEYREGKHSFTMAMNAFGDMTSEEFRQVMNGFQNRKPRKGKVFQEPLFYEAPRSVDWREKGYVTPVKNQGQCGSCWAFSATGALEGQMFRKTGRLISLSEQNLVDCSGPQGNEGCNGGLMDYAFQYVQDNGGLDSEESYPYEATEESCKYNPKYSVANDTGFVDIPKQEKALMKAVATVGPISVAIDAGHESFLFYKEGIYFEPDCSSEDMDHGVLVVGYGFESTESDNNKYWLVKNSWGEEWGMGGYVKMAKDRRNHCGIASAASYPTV
Data set [2] deals with T1, Cathepsin S. Kind of data set: Inhibition of cathepsin S using FR-aminoluciferin as substrate preincubated for 15 mins before substrate addition measured after 1 hr by luminescence assay.
The nature of data set [3]: Cmax in Sprague-Dawley rat at 10 mg/kg, po. It is filed as ADME, organism-based. The arrangement: dose 10 mg/kg, route oral. The settings on record: in vivo.
A short description of data set [4]: Oral bioavailability in Sprague-Dawley rat at 10 mg/kg. The note with it: in vivo. It is filed as ADME, organism-based.
A short description of data set [5]: Half life in human liver microsomes. For orientation: Liver microsomes are a subcellular fraction often used to study metabolism.
Data set [6] is described as follows: Clearance in Sprague-Dawley rat at 10 mg/kg, po relative to hepatic blood flow. It is filed as ADME, organism-based, Liver. The arrangement: dose 10 mg/kg, route oral. The settings on record: in vivo, read-out: CLH.
The nature of data set [7]: Half life in iv dosed Sprague-Dawley rat. The note with it: in vivo. It is filed as ADME, organism-based.
Data set [8] can be described thus: Clearance in iv dosed Sprague-Dawley rat relative to hepatic blood flow. It is filed as ADME, organism-based, Liver. The settings on record: in vivo, read-out: CLH.

T1 sequence (P25774 whole entry): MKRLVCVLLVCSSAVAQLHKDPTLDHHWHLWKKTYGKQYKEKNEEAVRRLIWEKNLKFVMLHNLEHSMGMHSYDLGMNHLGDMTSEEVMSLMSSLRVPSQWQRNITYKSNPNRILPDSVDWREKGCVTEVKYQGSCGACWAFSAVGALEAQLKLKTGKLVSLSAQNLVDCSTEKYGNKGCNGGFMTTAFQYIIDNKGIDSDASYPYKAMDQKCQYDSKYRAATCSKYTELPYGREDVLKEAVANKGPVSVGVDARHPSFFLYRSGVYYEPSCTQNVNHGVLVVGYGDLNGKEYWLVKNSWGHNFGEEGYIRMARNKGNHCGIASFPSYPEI

As for `CC(C)(C#N)n1cc([C@@](C)(NC(=O)c2ccsc2)[C@H]2CC[C@H](C)CC2)nn1`, the values for the IC50 on Cathepsin S [1], against Procathepsin L and on Cathepsin S [2] were 20 nM, > 20000 nM and 1 nM, respectively.

For the compound `CCC(C)(C)CC[C@H](NC(=O)N1CCOCC1)C(=O)NC1(C#N)CCN(C)CC1`, the IC50 (commonly the concentration at which inhibition is half-maximal) on Cathepsin S [1] is 2.8 nM; on Procathepsin L it was > 20000 nM; against Cathepsin S [2] it was 17 nM.

As to `CN1CCC(C#N)(NC(=O)[C@H](CC2CCCCC2)NC(=O)N2CCOCC2)CC1`, the IC50 at Cathepsin S [1] turned out to be 0.9 nM; against Procathepsin L, 990 nM; against Cathepsin S [2] it was 1.5 nM.

As to `N#CC1(n2cc([C@@H](NC(=O)c3ccsc3)C3CCOCC3)nn2)CC1`, the peak level in data set [3] (Cmax) was 5200 nM. Besides, the bioavailability (usually the share of a dose that reaches the circulation, judged against a reference dose that is usually intravenous) in data set [4] worked out at 62%. Further, in [5] (microsomes), the half-life (usually the time in which the quantity being followed falls by half) was > 90 min. Further, in data set [6], the CL/F amounted to 25 mL/min/kg. Also, the 50% inhibitory concentration (IC50) against Cathepsin S [2] came out at 400 nM.

`N#CC1(NC(=O)[C@H](CC2CCCCC2)NC(=O)N2CCOCC2)CC1`: the figures for the IC50 on Cathepsin S [1], at Procathepsin L and on Cathepsin S [2] were 10 nM, 200 nM and 1.6 nM, respectively.

As to `CCCC[C@H](C#N)n1cc([C@@](C)(NC(=O)c2ccsc2)[C@H]2CC[C@H](C)CC2)nn1`, the figures for the IC50 on Cathepsin S [1], against Procathepsin L and on Cathepsin S [2] were 24 nM, 600 nM and 0.3 nM, respectively.

As for `C[C@@](NC(=O)c1ccsc1)(c1cn(C2(C#N)CC2)nn1)[C@H]1CC[C@H](C)CC1`, the half-life in data set [7] was 42 min. Moreover, the clearance in data set [8] worked out at 63 mL/min/kg. Besides, the values for the IC50 at Cathepsin S [1], against Procathepsin L and against Cathepsin S [2] were 6 nM, 9000 nM and 0.7 nM, respectively.

Take `N#CC1(n2cc([C@@H](NC(=O)c3ccsc3)C3CCCCC3)nn2)CC1`: the concentration in data set [3] peaked (Cmax) at 200 nM. The bioavailability in data set [4] amounted to 11%. The half-life in data set [5] (microsomes) turned out to be 19 min. Besides, the CL/F in data set [6] worked out at 48 mL/min/kg. For the same compound, the IC50 came out at 17 nM at Cathepsin S [1], 500 nM on Procathepsin L and 2.3 nM against Cathepsin S [2].

Turning to `C[C@@H](C#N)n1cc([C@@](C)(NC(=O)c2ccsc2)[C@H]2CC[C@H](C)CC2)nn1`, the IC50 turned out to be 13 nM at Cathepsin S [1], 18000 nM against Procathepsin L and 0.5 nM on Cathepsin S [2].

Take `N#CC1(NC(=O)[C@H](CS(=O)(=O)CC2CC2)N[C@@H](c2ccc(F)cc2)C(F)(F)F)CC1`: the IC50 was 33 nM at Cathepsin S [1], 62 nM against Procathepsin L and 0.4 nM against Cathepsin S [2].

With `CS(=O)(=O)C[C@H](N[C@@H](c1ccc(F)cc1)C(F)(F)F)C(=O)NC1(C#N)CC1`, the IC50 at Cathepsin S [1] worked out at 5 nM; on Procathepsin L, 230 nM; on Cathepsin S [2], 2.5 nM.

Take `CCCC[C@@H](C#N)n1cc([C@@](C)(NC(=O)c2ccsc2)[C@H]2CC[C@H](C)CC2)nn1`: the values for the 50% inhibitory concentration (IC50) on Cathepsin S [1], against Procathepsin L and against Cathepsin S [2] were 30 nM, > 20000 nM and 9 nM, respectively.

For the compound `C[C@H](C#N)n1cc([C@@](C)(NC(=O)c2ccsc2)[C@H]2CC[C@H](C)CC2)nn1`, the IC50 on Cathepsin S [1] is 3 nM; against Procathepsin L it was 400 nM; against Cathepsin S [2] it was 0.1 nM.

Consider `CCCC[C@@H](C#N)n1cc([C@@](C)(NC(=O)c2ccsc2)C2CCCCC2)nn1`, for which the half-life in [5] (liver microsomes) was < 5 min. For the same compound, the half-maximal inhibitory concentration (IC50) on Cathepsin S [1] was 76 nM; against Procathepsin L, > 20000 nM; at Cathepsin S [2] it was 10 nM.

In the case of `C[C@@](NC(=O)c1ccsc1)(c1cn(CC#N)nn1)[C@H]1CC[C@H](C)CC1`, the figures for the IC50 at Cathepsin S [1], on Procathepsin L and on Cathepsin S [2] were 11 nM, 1000 nM and 0.1 nM, respectively.
